System: Sprague Dawley rats, 6-OHDA lesion
Experiment: Microglia morphology in substantia nigra, IBA1 skeleton analysis (study 2)
Assay type: in vivo, rat
Settings: more severe (40%) lesion, treatment vs vehicle, n = 7
Procedure: Rats were treated with 2LS98Lac or saline (vehicle) as outlined in the Schemes in Figures 9A,B via intraperitoneal (i.p.) injection (15 mg/kg). All animals were made hemi-parkinsonian with unilateral, striatal 6-hydroxydopamine (Sigma Aldrich, St. Louis, MO) injections. After surgery, behavioral assessments were done at 2- and 4-weeks post-surgery. 24 h after the last test animals were either euthanized and whole brains were harvested for future biochemical analysis or perfused and brains collected for immunohistochemistry and stereological assessment of tyrosine hydroxylase-positive (TH+) cells remaining in the SNc. In study 1: n = 16 each group were included, and all underwent the behavioral analysis: n = 16, and for the stereology in the SNc, n = 8 each group was used. In study 2: n = 23 each group were included. […] In the 2LS98Lac group, one video at 4 weeks was lost, reducing n = 22 in this specific analysis, and for the stereology, 2 brains were damaged during processing and could not be included in the stereology of the SNc, therefore […]. For biochemical subanalyses, n = 8 each group. For the microglial morphology subanalysis n = 7 each group.
Three coronal brain sections that contained the substantia nigra (SN) were randomly chosen for each animal. For immunofluorescence of microglia free-floating brain sections were first blocked in 10% horse serum (Vector Laboratories, S-2000–20, Burlingame, CA) and buffer solution (0.01 M PBS, 0.05% Triton, and 0.04% NaN3) for 1 h followed by a 72 h incubation with primary antibodies as appropriate: rabbit anti-IBA1 at 1:1,000 (Wako, 019–19741, Madison, WI), mouse anti-TH at 1:2000 (R& D Systems, MAB7566, Minneapolis, MN). […] All incubation steps were performed at room temperature; washes between incubations were with 0.01 M PBS for 15 min. Vectashield (Vector Laboratories, H-1000) was used to coverslip mounted tissue.
Images were acquired on a confocal microscope (Zeiss NLO 880, San Diego, CA) in 3 fields of view within the SN of each intact and lesioned hemisphere using a ×40 objective (473.33 × 473.33 μm area). […] Threshold parameters were consistent for all images, and the percent area of IBA1 immunofluorescence was measured for each image. The number of cell somas was counted in the IBA1 channel, an approximation of the number of cells imaged in each frame, and all percent area data was divided by this cell count.
Ramified microglial morphology was quantified using an objective and computer-aided skeleton analysis method previously described in detail ([Young and Morrison, 2018]). […] Sampling averages were calculated for each animal within each region (intact SN and lesion SN) prior to statistical analyses. […]

[2H]C([2H])([2H])C([2H])(C([2H])([2H])[2H])[C@]([2H])(NC(=O)[C@H](C)NC(=O)[C@H](C)NC(=O)[C@H](CC(C)C)NC(=O)[C@H](Cc1ccc(O)cc1)NC(=O)[C@H](CCCCN)NC(=O)[C@H](CCCCN)NC(=O)[C@@]([2H])(NC(=O)[C@H](C)NC(=O)[C@H](CC(C)C)NC(=O)[C@H](CCC(N)=O)NC(=O)[C@H](CCCCN)NC(=O)[C@H](CCCNC(=N)N)NC(=O)[C@H](Cc1ccc(O)cc1)NC(=O)[C@H](CCCNC(=N)N)NC(=O)[C@H](CO)NC(=O)[C@H](Cc1ccc(O)cc1)NC(=O)[C@H](CO)NC(=O)[C@H](CC(=O)O)NC(=O)[C@@H](NC(=O)[C@H](Cc1ccccc1)NC(=O)[C@@H](NC(=O)CNC(=O)[C@H](CC(=O)O)NC(=O)[C@H](CO)NC(=O)[C@@H](N)Cc1c[nH]cn1)[C@@H](C)CC)[C@@H](C)O)C([2H])(C([2H])([2H])[2H])C([2H])([2H])[2H])C(=O)N[C@@H](CC(C)C)C(=O)N[C@@H](CO[C@@H]1O[C@H](CO)[C@@H](O[C@@H]2O[C@H](CO)[C@H](O)[C@H](O)[C@H]2O)[C@H](O)[C@H]1O)C(N)=O [Compound 2LS98Lac]
% area IBA-1/cell on the lesioned side: significant increase
Microglial branches/cell on the lesioned side: significant increase
Microglial endpoints/cell on the lesioned side: trend toward increase
Microglial process length/cell on the lesioned side: significant increase

— publication PMC8887546, “Design and Synthesis of Brain Penetrant Glycopeptide Analogues of PACAP With Neuroprotective Potential for Traumatic Brain Injury and Parkinsonism” (Frontiers in drug discovery, 2022)
